Measurements taken from patent publication US20250049735A1, “MEDICINE FOR STEATOHEPATITIS” (The University of Tokyo, priority 2021, published 2025).

Tested on: Atp8b1 E-KO mice
Procedure: All animal experiments were approved by and performed in accordance with the guidelines of the animal experiment committee of the University of Tokyo. To generate Atp8b1^flox/flox mice, ICR and C57BL/6J mice were purchased from Charles River Laboratories International, Inc. (Yokohama, Japan). Mice were kept under pathogen-free conditions at a room temperature of 23.5° C.±2.5° C. and a relative humidity of 52.5%+12.5% under a 14-hour light: 10-hour dark cycle. […] In order to supplement choline to pups, mother mice were fed with a 1.0% choline supplemented diet (D20011404, Research Diets) until weaning of their pups.
Male 3 to 4-week-old intestinal epithelial cell-specific Atp8b1 knockout (Atp8b1 E-KO) mice and control mice (littermate Flox/Flox mice) underwent laparotomy under isoflurane anesthesia. […] The blood was centrifuged at 1,700×g for 15 minutes, and plasma was separated. Thereafter, the plasma was flash-frozen in liquid nitrogen and was stored at −80° C. The liver was excised and was then flash-frozen in liquid nitrogen, and thereafter, the thus frozen liver was stored at −80° C., or was used for histological and electron microscopic analyses. The small intestine was excised, was then rinsed with cold PBS containing 0.5m M taurocholic acid, and was then used for histological and electron microscopic analyses, or for preparation of epithelial cells. To isolate epithelial cells from small intestine, TTDR kit (Becton Dickinson, Becton Drive Franklin Lakes, NJ) was used. According to the manufacturer's instructions included with the kit, the small intestine was opened longitudinally, was sliced into small fragments with a size of roughly 2 mm. The fragments were incubated with 1×TTDR diluted with DMEM (11995-065, gibco) at 37° C. for 30 minutes, and the resulting fragments were then mixed with 2 mM EDTA/PBS containing 1% BSA. The thus obtained mixture was filtrated through a 70 μm cell strainer (VWR21008-952; Corning Inc, Corning, NY), and was then centrifugated at 250×g at 4° C. for 10 minutes. The obtained cell pellets were incubated with 1×Pharm Lyse (Becton Dickinson, Becton Drive Franklin Lakes, NJ) at room temperature for 15 minutes for the lysis of red blood cells, and the resultant was then mixed with 2 mM EDTA/PBS containing 1% BSA. The thus obtained mixture was centrifuged at 250×g at 4° C. for 10 minutes. The prepared epithelial cells were flash frozen in liquid nitrogen, and were then stored at −80° C.
Metabolites were extracted from plasma, liver, and intestinal epithelial cells with methanol. After centrifugation at 20,000×g at 4° C. for 5 minutes, the supernatant was mixed with 400 mM ammonium sulfate at a ratio of 19:1. The mixture was centrifuged at 20,000×g at 4° C. for 5 minutes. The supernatant was applied to the LC/MS/MS system, which consisted of a UHPLC Nexera liquid chromatography system (Shimadzu co., Kyoto, Japan) and a 5500QTRAP mass spectrometer (AB Sciex pte. ltd., Toronto, Canada). The analytes were passed through a ZIC-CHILIC column (2.1×100 mm, 3 μm, Merck Millipore, Darmstadt, Germany) at a temperature of 30° C. with a gradient elution of the mobile phases, 10 mM ammonium formate aqueous solution and acetonitrile at a flow rate at 0.4 mL/min. The eluent was ionized using electrospray ionization and was scanned with an MRM mode (see Yuan et al., Nat. Protoc. 2012, 7 (5), 872-881. https://doi.org/10.1038/nprot.2012.024). Each MRM peak was assigned to a target molecule in comparison with its authentic standard.
The concentrations of choline, betaine, dimethylglycine (N,N-dimethylglycine) and glycerophosphorylcholine (sn-glycero-3-phosphocholine) in plasma were determined by liquid chromatography/tandem mass spectrometry (LC/MS/MS) assay. The sample was mixed with 98-fold volume of ethanol and 1-fold volume of the internal standard (IS) solution (10 μmol/L choline in water, 10 μmol/L glycerophosphorylcholine in water, and 1 μmol/L betaine in water).

[1] = liver of pups, mothers fed 1% choline supplemented diet vs normal diet (0.1% choline)
[2] = liver of pups, mothers fed 1% choline supplemented diet, compared with control mice
[3] = plasma and liver of Atp8b1 E-KO pups, mothers fed 1% choline supplemented diet, summary statement
[4] = plasma of pups, mothers fed 1% choline supplemented diet vs normal diet (0.1% choline)
[5] = plasma of pups, mothers fed 1% choline supplemented diet, compared with control mice
[6] = small intestinal epithelial cells of pups, mothers fed 1% choline supplemented diet vs normal diet (0.1% choline)

C[N+](C)(C)CCO [choline]
concentration of choline in liver [1]: not changed
concentration of glycerophosphorylcholine (GPC) in liver [1]: not changed
concentration of phosphorylcholine in liver [1]: not changed
concentration of betaine in liver [2]: recovered
concentration of dimethylglycine in liver [2]: recovered
concentration of phosphatidylcholine (PC) in liver [2]: recovered
amount of choline in the pups (plasma and liver of Atp8b1 E-KO pups, mothers fed 1% choline supplemented diet vs normal diet, summary statement): no change
amount of betaine in the pups [3]: increased
amount of dimethylglycine in the pups [3]: increased
amount of phosphatidylcholine (PC) in the pups [3]: increased
concentration of choline in plasma [4]: not changed
concentration of glycerophosphorylcholine (GPC) in plasma [4]: not changed
concentration of phosphorylcholine in plasma [4]: not changed
concentration of betaine in plasma [5]: recovered
concentration of dimethylglycine in plasma [5]: recovered
concentration of betaine in small intestinal epithelial cells (small intestinal epithelial cells of pups, mothers fed 1% choline supplemented diet): not changed
concentration of choline in small intestinal epithelial cells [6]: not changed
concentration of glycerophosphorylcholine (GPC) in small intestinal epithelial cells [6]: not changed
concentration of phosphorylcholine in small intestinal epithelial cells [6]: not changed
